In ChEMBL document CHEMBL1122784, “Antitumor imidazotetrazines. 1. Synthesis and chemistry of 8-carbamoyl-3-(2-chloroethyl)imidazo[5,1-d]-1,2,3,5-tetrazin-4(3 H)-one , a novel broad-spectrum antitumor agent” (J Med Chem, 1984):

How the values were obtained:
Format in all cases: functional
Conditions in all cases: route intraperitoneal
Mus musculus [1] = assay: Compound was evaluated for %T/C in P388 leukemia implanted BDF1 mice on day 0 after ip administration of 10 mg/kg/day on day 1-5
Mus musculus [2] = assay: Compound was evaluated for number of survivors in L1210 leukemia implanted BDF1 mice on day 0 after ip administration of 20 mg/kg/day on day 60 out of 5 mice
Mus musculus [3] = assay: Compound was evaluated for %T/C in L1210 leukemia implanted BDF1 mice on day 0 after ip administration of 10 mg/kg/day on day 1-5

NC(=O)c1ncn2c(=O)n(CCCl)nnc12 [MITOZOLOMIDE]
T/C (Mus musculus [1]): >555%
Survivors (Mus musculus [2]): 5
T/C (Mus musculus [3]): >577%
